Measurements published in ChEMBL document CHEMBL1201862, “PubChem BioAssay data set” (2004).
Values joined by “and” are separate entries in the source; they are usually repeats but may differ in a detail not shown here. Equal entries are not always repeated. One block for each compound: values may come before it. Active and inactive are the calls of the source. Where a SMILES comes first, the peptide text is derived from it. [ ]: non-standard residue; d: D form. The star is where a group is joined. ξ: configuration not given here. Cbz = O=C(OCc1ccccc1)*; ξL = CC(C)CC(N)C(=O)O; ξP = O=C(O)C1CCCN1

Tests used:
Cytochrome P450 2C9 = Cytochrome P450 2C9 (Homo sapiens, UniProt P11712)
Sequence of Cytochrome P450 2C9 (P11712 whole entry): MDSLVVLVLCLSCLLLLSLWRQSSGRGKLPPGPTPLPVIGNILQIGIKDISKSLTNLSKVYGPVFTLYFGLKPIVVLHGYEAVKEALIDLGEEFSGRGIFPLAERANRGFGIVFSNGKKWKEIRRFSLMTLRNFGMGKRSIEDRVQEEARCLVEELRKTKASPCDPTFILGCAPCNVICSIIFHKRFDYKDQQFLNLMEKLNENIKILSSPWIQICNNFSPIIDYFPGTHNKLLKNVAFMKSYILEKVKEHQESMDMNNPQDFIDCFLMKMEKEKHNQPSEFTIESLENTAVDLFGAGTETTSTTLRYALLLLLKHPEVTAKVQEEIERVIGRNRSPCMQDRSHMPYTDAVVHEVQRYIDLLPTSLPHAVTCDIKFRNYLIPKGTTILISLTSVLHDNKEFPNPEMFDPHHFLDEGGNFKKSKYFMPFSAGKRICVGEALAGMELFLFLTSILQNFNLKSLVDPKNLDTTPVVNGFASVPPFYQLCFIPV

Cytochrome P450 2C19 = Cytochrome P450 2C19 (Homo sapiens, UniProt P33261); test: Cytochrome panel assay with activity outcomes. Panel member name: p450-cyp2c19 Compounds with AC50 equal or less than 10 uM are considered active; format: functional; settings: read-out: AC50
Sequence of Cytochrome P450 2C19 (P33261 whole entry): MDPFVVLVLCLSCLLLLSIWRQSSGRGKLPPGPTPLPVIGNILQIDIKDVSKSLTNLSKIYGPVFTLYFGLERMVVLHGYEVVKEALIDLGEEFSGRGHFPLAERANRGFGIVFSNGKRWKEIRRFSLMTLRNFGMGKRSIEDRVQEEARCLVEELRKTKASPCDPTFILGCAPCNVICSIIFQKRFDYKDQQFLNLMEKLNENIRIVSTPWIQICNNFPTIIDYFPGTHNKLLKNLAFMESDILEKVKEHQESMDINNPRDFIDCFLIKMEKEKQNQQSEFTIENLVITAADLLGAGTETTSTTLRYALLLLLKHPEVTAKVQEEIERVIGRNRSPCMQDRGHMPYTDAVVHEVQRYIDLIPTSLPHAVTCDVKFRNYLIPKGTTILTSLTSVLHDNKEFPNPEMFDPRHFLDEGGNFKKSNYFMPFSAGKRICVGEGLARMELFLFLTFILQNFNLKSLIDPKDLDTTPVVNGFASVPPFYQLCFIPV

Cytochrome P450 1A2 = target: T1, Cytochrome P450 1A2 (Homo sapiens, UniProt P05177);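 also: PubChem cytochrome P450 panel assay, CYP1A2 panel member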
T1 sequence (P05177 whole entry): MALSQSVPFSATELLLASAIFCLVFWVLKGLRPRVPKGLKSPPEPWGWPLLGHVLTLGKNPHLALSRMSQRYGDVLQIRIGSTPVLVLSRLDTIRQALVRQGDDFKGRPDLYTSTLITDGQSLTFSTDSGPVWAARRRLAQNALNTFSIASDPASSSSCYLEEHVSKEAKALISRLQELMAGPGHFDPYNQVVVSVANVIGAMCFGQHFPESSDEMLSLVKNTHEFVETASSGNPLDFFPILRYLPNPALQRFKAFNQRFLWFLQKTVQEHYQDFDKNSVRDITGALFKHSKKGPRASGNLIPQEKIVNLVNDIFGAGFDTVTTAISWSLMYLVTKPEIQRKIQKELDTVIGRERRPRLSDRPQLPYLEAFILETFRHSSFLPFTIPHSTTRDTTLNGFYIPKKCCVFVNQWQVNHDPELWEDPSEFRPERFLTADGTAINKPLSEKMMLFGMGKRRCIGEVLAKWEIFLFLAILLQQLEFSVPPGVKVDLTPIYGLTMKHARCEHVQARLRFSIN

Cytochrome P450 2D6 = Cytochrome P450 2D6 (Homo sapiens, UniProt P10635);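 also: CYP2D6 member of a cytochrome P450 panel assay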
Sequence of Cytochrome P450 2D6 (P10635 whole entry): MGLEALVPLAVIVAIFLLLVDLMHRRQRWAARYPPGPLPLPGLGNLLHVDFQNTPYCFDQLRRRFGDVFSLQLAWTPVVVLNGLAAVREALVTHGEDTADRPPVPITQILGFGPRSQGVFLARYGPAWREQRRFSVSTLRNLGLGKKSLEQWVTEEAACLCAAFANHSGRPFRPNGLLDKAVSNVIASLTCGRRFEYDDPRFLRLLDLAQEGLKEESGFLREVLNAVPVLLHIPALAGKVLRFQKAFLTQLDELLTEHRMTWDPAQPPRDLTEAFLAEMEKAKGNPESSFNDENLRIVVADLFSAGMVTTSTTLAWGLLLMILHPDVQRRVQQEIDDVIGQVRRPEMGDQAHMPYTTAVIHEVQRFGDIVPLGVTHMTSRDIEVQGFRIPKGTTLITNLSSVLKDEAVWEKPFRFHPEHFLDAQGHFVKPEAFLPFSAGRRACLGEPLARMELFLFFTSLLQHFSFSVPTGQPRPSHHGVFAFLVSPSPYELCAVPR

[1] = target: T2, Heat shock factor protein 1 (Mus musculus, UniProt P38532); test: decrease of HSF1-responsive luciferase luminescence – cell-based, NIH3T3, dose retest, confirmation (AID 2382); format: functional;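 also: NIH3T3 fibroblasts with HSF1-driven luciferase reporter stressed by proteasome inhibitor MG132; luminescence from HSF1-driven luciferase expression after 8 hours of MG132 stress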
T2 sequence (P38532 whole entry): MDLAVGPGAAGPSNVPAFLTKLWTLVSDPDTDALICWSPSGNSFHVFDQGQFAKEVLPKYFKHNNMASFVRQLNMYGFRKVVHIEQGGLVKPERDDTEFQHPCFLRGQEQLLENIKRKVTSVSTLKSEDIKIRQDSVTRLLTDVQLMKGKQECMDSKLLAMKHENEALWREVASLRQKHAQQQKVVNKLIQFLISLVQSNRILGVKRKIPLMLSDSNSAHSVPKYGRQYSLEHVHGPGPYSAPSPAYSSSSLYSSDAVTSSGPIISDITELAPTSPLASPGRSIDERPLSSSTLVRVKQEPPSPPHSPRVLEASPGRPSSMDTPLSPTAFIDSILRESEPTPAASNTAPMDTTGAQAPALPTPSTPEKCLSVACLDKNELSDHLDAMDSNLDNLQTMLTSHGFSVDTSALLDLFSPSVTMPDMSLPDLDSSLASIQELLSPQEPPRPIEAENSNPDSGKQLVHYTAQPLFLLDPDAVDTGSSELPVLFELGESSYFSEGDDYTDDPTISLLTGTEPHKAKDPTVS

[2] = tested on: Streptococcus sp. 'group A'; test: Streptococcus pyogenes SK(-)GAS viability under kanamycin – luminescence, BacTiterGlo, confirmation, counter-screen for streptokinase expression inhibitor project, dose response (AID 1900); format: functional, organism-based
Streptococcus = test: GAS UMAA2166 growth inhibition – luminescence, BacTiterGlo, counter-screen for streptokinase expression inhibitor project, dose response (AID 1915); format: functional, organism-based;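 also: potency for reduction of bacterial viability or growth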
[3] = Luminescence Cell-Based Dose Retest to Confirm Inhibitors of Cancer Stem Cells. [Related pubchem assays (depositor defined):AID2717, AID2721]; format: functional; settings: Homo sapiens
INS1 = test: INS-1E survival protection against cytokine death – cell-based, luminescence, retest, dose response (AID 449756); format: functional; settings: Rattus norvegicus;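 also: cell death triggered by IL-1 beta plus TNF-alpha plus IFN-gamma mixture; protective hits raise ATP signal compared with cytokine alone wells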
Cytochrome P450 3A4 = Cytochrome P450 3A4 (Homo sapiens, UniProt P08684);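 also: CYP3A4 tested as one member of a cytochrome P450 panel screen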
Sequence of Cytochrome P450 3A4 (P08684 whole entry): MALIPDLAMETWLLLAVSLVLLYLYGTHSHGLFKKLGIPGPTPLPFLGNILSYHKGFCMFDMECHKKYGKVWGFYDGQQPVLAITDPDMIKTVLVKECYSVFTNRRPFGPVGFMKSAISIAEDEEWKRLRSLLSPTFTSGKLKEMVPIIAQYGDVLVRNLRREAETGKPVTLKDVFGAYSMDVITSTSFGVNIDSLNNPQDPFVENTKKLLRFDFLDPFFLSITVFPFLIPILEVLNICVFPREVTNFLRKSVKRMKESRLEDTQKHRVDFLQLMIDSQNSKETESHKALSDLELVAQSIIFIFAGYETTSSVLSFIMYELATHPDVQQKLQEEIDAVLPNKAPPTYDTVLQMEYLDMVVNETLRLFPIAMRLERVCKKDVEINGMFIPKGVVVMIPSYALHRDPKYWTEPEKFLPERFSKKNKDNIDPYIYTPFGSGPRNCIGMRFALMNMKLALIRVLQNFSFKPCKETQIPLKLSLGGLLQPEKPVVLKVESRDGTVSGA

Paired box protein Pax-8 = Paired box protein Pax-8 (Homo sapiens, UniProt Q06710); test: PAX8 transcriptional activity inhibition in RMG-I – RMG-I cells, luciferase, cherry-pick, dose response (AID 687027); format: functional, cell-based;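 also: luciferase reporter driven by Pax8 target thyroperoxidase promoter measured by SteadyGlo luminescence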
Sequence of Paired box protein Pax-8 (Q06710 whole entry): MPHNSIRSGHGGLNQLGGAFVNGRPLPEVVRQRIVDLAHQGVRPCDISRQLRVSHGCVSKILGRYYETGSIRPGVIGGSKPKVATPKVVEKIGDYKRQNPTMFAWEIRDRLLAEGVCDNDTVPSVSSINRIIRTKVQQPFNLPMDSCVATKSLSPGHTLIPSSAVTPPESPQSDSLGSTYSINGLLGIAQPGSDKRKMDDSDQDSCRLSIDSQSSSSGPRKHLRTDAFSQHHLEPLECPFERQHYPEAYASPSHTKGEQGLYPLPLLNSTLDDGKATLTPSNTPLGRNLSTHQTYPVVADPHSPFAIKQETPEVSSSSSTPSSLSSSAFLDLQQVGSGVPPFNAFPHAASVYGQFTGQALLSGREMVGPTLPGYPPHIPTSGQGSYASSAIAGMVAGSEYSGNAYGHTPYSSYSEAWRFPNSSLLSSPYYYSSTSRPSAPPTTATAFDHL

SMILES: C[C@H](CO)NC(=O)[C@H](C)[C@H]1C[C@]1(C)[C@H](NC(=O)OCc1ccccc1)c1ccccc1
AC50 (Cytochrome P450 2D6): 15.8 µM (inconclusive)
AC50 (Cytochrome P450 2C9): 25.1 µM (inconclusive)

SMILES: C[C@H]1CC[C@@]2(C)[C@@H](CC[C@@H]3[C@@H]2CC[C@]2(C)[C@@H](O)CC[C@@H]32)C1
EC50 [2]: 643 nM (active)
EC50 (Streptococcus): 2.65 µM (active)

SMILES: CC(Nc1nc(-c2ccc(Cl)cc2)cs1)c1nc2cc(Cl)c(N3CCCCC3)cc2n1CCOCCO (stereo unspecified)
AC50 [3]: 1.1 µM (active)

SMILES: COc1ccc(-c2sc3ccccc3c2-c2ccc(OCCN3CCCCC3)cc2)cc1
AC50 [3]: 0.914 µM (active)
AC50 (INS1): 8.34 µM (active)

SMILES: CCOc1ccc(N2C(=O)CN=C2Nc2ccccc2Cl)cc1
AC50 (Cytochrome P450 3A4): 15.8 µM (inconclusive)
AC50 (Cytochrome P450 2C19): 11.2 µM (inconclusive)

SMILES: CC(=CCOc1ccc2ccc(=O)oc2c1)C1=CC(=O)C(C)(C)O1
AC50 (Paired box protein Pax-8): 4.95 µM (active)

SMILES: C[C@@H]1CCCCO[C@H](CN(C)C(=O)Cc2ccccc2)[C@H](C)CN([C@@H](C)CO)C(=O)c2cc(NC(=O)Nc3ccc(C(F)(F)F)cc3)ccc2O1
AC50 (Paired box protein Pax-8): 8.05 µM (active)

SMILES: CCCCCCc1c(O)noc1C[C@H](N)C(=O)O
AC50 (Cytochrome P450 1A2): 25.1 µM (inconclusive) and 31.6 µM (inconclusive)

SMILES: C/C(=N/NC(=O)Cc1cccn1C)c1ccccc1
AC50 (Cytochrome P450 2C9): 25.1 µM (inconclusive)

SMILES: CCOC(=O)C1=C(N)n2c(s/c(=C/c3ccccc3)c2=O)=C(C(=O)OCC)C1c1ccccc1 (stereo unspecified)
AC50 (Cytochrome P450 2C9): 2.82 µM (inconclusive)

SMILES: CC(C)CC(NC(=O)C1CCCN1C(=O)[C@@H](C)NC(=O)OCc1ccccc1)C(=O)NCC(N)=O (stereo partly specified) (Cbz-[dA][ξP][ξL]G-NH2)
EC50 [1]: > 195 µM (not active)

SMILES: O=C(O)c1cc([N+](=O)[O-])ccc1NCCCc1ccccc1 [5-NITRO-2-PHENYLPROPYLAMINOBENZOIC ACID [NPPB]]
AC50 (Cytochrome P450 1A2): 39.8 µM (inconclusive)

The next lines start with the values.

AC50 (Cytochrome P450 2C9): 3.16 µM (inconclusive)
AC50 (Cytochrome P450 2C19): 0.00562 µM (inconclusive)
SMILES: O=[N+]([O-])c1cccnc1N1CCCCC1

AC50 (Cytochrome P450 1A2): 20 µM (inconclusive)
SMILES: Cn1cccc1C(=O)N1CCC2(CC1)CCN(c1cccc(-c3ccccc3)c1)CC2

EC50 [1]: > 195 µM (not active)
SMILES: COc1cc(N)ccc1C(=O)O

EC50 [1]: > 195 µM (not active)
SMILES: CN(C(=O)C1CCOC1)c1nnc(-c2ccncc2)s1 (stereo unspecified)

AC50 (Cytochrome P450 2C9): 25.1 µM (inconclusive)
SMILES: O=Nc1ccc(NOC(=O)c2ccc(Br)cc2)cc1

AC50 (Cytochrome P450 2D6): 25.1 µM (inconclusive)
AC50 (Cytochrome P450 2C9): 25.1 µM (inconclusive)
SMILES: C=CCSc1nn2c(=O)c3ccccc3nc2s1

AC50 (Cytochrome P450 1A2): 5.01 µM (inconclusive)
SMILES: CCC(=O)[C@@H](c1ccccc1)c1ccccn1

AC50 (Cytochrome P450 2C9): 39.8 µM (inconclusive)
SMILES: CC(=O)Nc1ccc(C(=O)NNC(=O)CCc2ccccc2)cc1

AC50 (Paired box protein Pax-8): 23.7 µM (active)
SMILES: O=C(C[C@H]1CC[C@H]2[C@@H](COC[C@@H](O)CN2S(=O)(=O)c2ccccc2Cl)O1)N1CCC(Cc2ccccc2)CC1

AC50 (Cytochrome P450 2C9): 1.58 µM (inconclusive)
SMILES: Cc1ccc(S(=O)(=O)N(CC(=O)N/N=C/c2ccc(F)cc2)c2cccc3cccnc23)cc1

EC50 [1]: > 195 µM (not active)
SMILES: Oc1ccccc1/C=N/Nc1nnn[nH]1

EC50 [1]: > 195 µM (not active)
SMILES: CC(C)NC(=O)CC(=O)N/N=C\c1ccccc1C(=O)O

EC50 [1]: > 195 µM (not active)
SMILES: C/C(CC(=O)Nc1ccc(N(C)C)cc1)=N\NC(=O)Cc1csc(N)n1

AC50 (Cytochrome P450 1A2): 15.8 µM (inconclusive)
AC50 (Cytochrome P450 2C19): 31.6 µM (inconclusive)
SMILES: Cc1cccc(CNc2ncncc2-c2ccc(C(=O)N(C)C)cc2)c1

AC50 (Cytochrome P450 2C9): 0.631 µM (inconclusive)
SMILES: COc1cccc(-c2ccc3ncnc(NCc4cccs4)c3c2)c1

AC50 (Cytochrome P450 1A2): 31.6 µM (inconclusive)
AC50 (Cytochrome P450 2C19): 10 µM (inconclusive)
SMILES: CCCCCCN(CCCCCC)C(=O)Cc1c(-c2ccc(Cl)cc2)[nH]c2ccc(Cl)cc12
